Series [1] deals with T1, Solute carrier organic anion transporter family member 1B3 (Homo sapiens, UniProt Q9NPD5).
T1 sequence (Q9NPD5 whole entry): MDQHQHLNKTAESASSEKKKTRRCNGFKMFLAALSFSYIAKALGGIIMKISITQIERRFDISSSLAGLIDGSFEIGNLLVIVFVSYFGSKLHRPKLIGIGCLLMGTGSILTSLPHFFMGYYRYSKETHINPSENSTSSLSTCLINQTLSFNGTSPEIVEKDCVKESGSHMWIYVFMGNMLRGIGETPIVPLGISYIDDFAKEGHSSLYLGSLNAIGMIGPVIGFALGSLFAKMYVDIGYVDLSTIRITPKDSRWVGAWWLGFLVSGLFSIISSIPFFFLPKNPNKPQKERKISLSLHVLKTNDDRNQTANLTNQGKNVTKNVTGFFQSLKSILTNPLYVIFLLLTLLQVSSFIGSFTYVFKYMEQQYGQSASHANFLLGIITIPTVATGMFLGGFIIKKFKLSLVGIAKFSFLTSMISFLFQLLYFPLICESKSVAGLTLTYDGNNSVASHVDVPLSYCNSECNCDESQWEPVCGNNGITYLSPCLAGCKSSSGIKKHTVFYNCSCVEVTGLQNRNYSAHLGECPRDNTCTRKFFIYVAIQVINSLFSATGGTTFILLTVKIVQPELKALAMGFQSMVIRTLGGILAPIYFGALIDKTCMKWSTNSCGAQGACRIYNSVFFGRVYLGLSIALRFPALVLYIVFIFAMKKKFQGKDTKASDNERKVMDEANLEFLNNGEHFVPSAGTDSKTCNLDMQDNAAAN
To be noted: chinese hamster, cho, 10 µM.

The target of series [2] is T2, Solute carrier organic anion transporter family member 1B1 (Homo sapiens, UniProt Q9Y6L6).
T2 sequence (Q9Y6L6 whole entry): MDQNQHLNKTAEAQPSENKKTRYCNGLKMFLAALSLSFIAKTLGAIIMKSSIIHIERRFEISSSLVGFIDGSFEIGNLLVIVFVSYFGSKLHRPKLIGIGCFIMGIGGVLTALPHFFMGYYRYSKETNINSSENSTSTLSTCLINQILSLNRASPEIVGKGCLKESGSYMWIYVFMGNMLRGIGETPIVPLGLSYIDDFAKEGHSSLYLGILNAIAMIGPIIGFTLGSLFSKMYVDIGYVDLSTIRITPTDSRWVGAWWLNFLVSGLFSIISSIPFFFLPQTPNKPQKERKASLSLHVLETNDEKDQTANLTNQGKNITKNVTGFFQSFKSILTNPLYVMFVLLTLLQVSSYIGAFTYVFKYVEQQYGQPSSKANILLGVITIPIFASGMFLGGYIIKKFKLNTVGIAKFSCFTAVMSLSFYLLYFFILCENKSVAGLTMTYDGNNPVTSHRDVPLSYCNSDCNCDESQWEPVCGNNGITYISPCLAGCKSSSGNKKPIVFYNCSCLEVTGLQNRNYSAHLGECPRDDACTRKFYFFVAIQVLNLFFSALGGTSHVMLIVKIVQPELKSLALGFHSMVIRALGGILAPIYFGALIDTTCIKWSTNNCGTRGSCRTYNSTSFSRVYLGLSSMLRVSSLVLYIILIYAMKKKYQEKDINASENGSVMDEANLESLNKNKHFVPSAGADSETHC
To be noted: chinese hamster, cho, 10 µM.

For `CN(C)CCCN1c2ccccc2Sc2ccccc21.Cl` [PROMAZINE HYDROCHLORIDE], the residual activity was 81.19% in series [1] and 82.72% in series [2].
In the same order, the values of `CC(CN1c2ccccc2Sc2ccccc21)N(C)C.Cl` (stereo not drawn) [PROMETHAZINE HYDROCHLORIDE] are 86.93% and 69.15%.
`COc1nc(NC(C)C)nc(NC(C)C)n1` [PROMETON]: the residual activity in series [1] is 102.5%; in series [2], 114.4%.
As to `CSc1nc(NC(C)C)nc(NC(C)C)n1` [PROMETRYN], the residual activity in series [1] worked out at 86.3%; in series [2], 175.4%.
Turning to `CC(C)N(C(=O)CCl)c1ccccc1` [PROPACHLOR], the residual activity in series [1] was determined as 110.5%; in series [2], 110.8%.
In the same order, the values of `CCC(=O)Nc1ccc(Cl)c(Cl)c1` [PROPANIL] are 115.2% and 92.07%.
For the compound `CC(C)[N+](C)(CCOC(=O)C1c2ccccc2Oc2ccccc21)C(C)C.[Br-]` [PROPANTHELINE BROMIDE], the residual activity in series [1] and in series [2] was 110.4% each time.
Regarding `C#CCOS(=O)OC1CCCCC1Oc1ccc(C(C)(C)C)cc1` (stereo not drawn) [PROPARGITE], the residual activity in series [1] is 106%; in series [2] it was 93.31%.
In the same order, the values of `CC(C)Nc1nc(Cl)nc(NC(C)C)n1` [PROPAZINE] are 91.55% and 110.4%.
In the same order, the values of `CCCn1cnc2c1c(=O)n(CCCCC(C)=O)c(=O)n2C` [PROPENTOFYLLINE] are 110.4% and 126.3%.
In the same order, the values of `CNC(=O)Oc1ccccc1OC(C)C` [PROPOXUR] are 109.6% and 104%.
On to `CC(C)NCC(O)COc1cccc2ccccc12.Cl` (stereo not drawn) [PROPRANOLOL HYDROCHLORIDE], for which the figures for the residual activity in series [1] and in series [2] were 95.98% and 59.88%, respectively.
In the same order, the values of `CCCc1cc(=O)[nH]c(=S)[nH]1` [PROPYLTHIOURACIL] are 90.71% and 79.91%.
In the same order, the values of `C=CC1=C(C)c2cc3[nH]c(cc4nc(cc5[nH]c(cc1n2)c(C)c5CCC(=O)O)C(CCC(=O)O)=C4C)c(C)c3C=C` [PROTOPORPHYRIN] are 94.63% and 49.56%.
As for `CC[C@@H](C)C(=O)O[C@H]1[C@H](O)[C@H]2[C@@H](CN3C[C@@H](C)CC[C@H]3[C@@]2(C)O)[C@@H]2C[C@]34O[C@]5(O)[C@@H](OC(=O)[C@@](C)(O)CC)CC[C@@]3(C)[C@@H]5[C@@H](OC(C)=O)[C@@H](OC(C)=O)[C@H]4[C@@]21O` [PROTOVERATRINE A], the residual activity in series [1] was found to be 77.86%; in series [2], 93.58%.
In the case of `CC[C@@H](C)C(=O)O[C@H]1[C@H](O)[C@H]2[C@@H](CN3C[C@@H](C)CC[C@H]3[C@@]2(C)O)[C@@H]2C[C@]34O[C@]5(O)[C@@H](OC(=O)[C@](C)(O)[C@@H](C)O)CC[C@@]3(C)[C@@H]5[C@@H](OC(C)=O)[C@@H](OC(C)=O)[C@H]4[C@@]21O` [PROTOVERATRINE B], the results for the residual activity in series [1] and in series [2] were 125.5% and 114.4%, respectively.
In the same order, the values of `CN[C@@H](C)[C@@H](O)c1ccccc1.Cl` [PSEUDOEPHEDRINE HYDROCHLORIDE] are 102.7% and 86.1%.
In the case of `CC1=CCc2c(cc3oc(C)cc(=O)c3c2O)OC1` [PTAEROXYLIN], the residual activity in series [1] came to 109.4%; in series [2], 104.1%.
As for `Nc1nc2ncc(C(=O)O)nc2c(=O)[nH]1` [PTERIN-6-CARBOXYLIC ACID], the values for the residual activity in series [1] and in series [2] were 99.97% and 102.1%, respectively.
In the same order, the values of `C/C=C(/C)C(=O)O[C@@H]1c2c(ccc3ccc(=O)oc23)OC(C)(C)[C@@H]1OC(C)=O` [PTERYXIN] are 114.3% and 84.8%.
For `COc1ccc(C[C@H](N)C(=O)N[C@H]2[C@@H](O)[C@H](n3cnc4c(N(C)C)ncnc43)O[C@@H]2CO)cc1.Cl.Cl` [PUROMYCIN HYDROCHLORIDE], the residual activity is listed as 116.6% in series [1] and 95.86% in series [2].
In the same order, the values of `O=C1c2ccccc2C(=O)c2c(O)c(O)cc(O)c21` [PURPURIN] are 98.68% and 100.1%.
With `O=c1c(O)cccc2cc(O)c(O)c(O)c12` [PURPUROGALLIN], the results for the residual activity in series [1] and in series [2] were 82.24% and 65.05%, respectively.
Regarding `Cl.Cl.NCCCCN` [PUTRESCINE DIHYDROCHLORIDE], the residual activity in series [1] worked out at 106.7%; in series [2], 110.3%.
As for `CN1CCCN=C1/C=C/c1cccs1.O=C(O)c1cc2ccccc2c(Cc2c(O)c(C(=O)O)cc3ccccc23)c1O` [PYRANTEL PAMOATE], the residual activity in series [1] is 34.84%; in series [2], 31.41%.
With `NC(=O)c1cnccn1` [PYRAZINAMIDE], the residual activity amounted to 116.6% in series [1] and 79.24% in series [2].
In the same order, the values of `CN(C)C(=O)Oc1ccc[n+](C)c1.[Br-]` [PYRIDOSTIGMINE BROMIDE] are 112% and 96.49%.
In the same order, the values of `COc1ccc(CN(CCN(C)C)c2ccccn2)cc1.O=C(O)/C=C\C(=O)O` [PYRILAMINE MALEATE] are 101.4% and 68.75%.
In the same order, the values of `CCc1nc(N)nc(N)c1-c1ccc(Cl)cc1` [PYRIMETHAMINE] are 107.4% and 72.59%.
As for `[O-][n+]1ccccc1[S][Zn][S]c1cccc[n+]1[O-]` [PYRITHIONE ZINC], the residual activity was 94.54% in series [1] and 92.52% in series [2].
In the same order, the values of `CCC1(CC)C(=O)C=CNC1=O` [PYRITHYLDIONE] are 101.3% and 106.5%.
In the same order, the values of `CC[C@@]1(O)C[C@H](O[C@H]2C[C@H](N(C)C)[C@H](O)[C@H](C)O2)c2c(cc3c(c2O)C(=O)c2c(O)ccc(O)c2C3=O)[C@H]1C(=O)OC` [PYRROMYCIN] are 81.89% and 90.45%.
In the same order, the values of `Cc1cc(/C=C/c2ccc3cc(N(C)C)ccc3[n+]2C)c(C)n1-c1ccccc1.Cc1cc(/C=C/c2ccc3cc(N(C)C)ccc3[n+]2C)c(C)n1-c1ccccc1.O=C([O-])c1cc2ccccc2c(Cc2c(O)c(C(=O)[O-])cc3ccccc23)c1O` [PYRVINIUM PAMOATE] are 32.66% and 42.61%.
On to `CO[C@H]1[C@H](O)[C@@H](O)[C@H](O)[C@H](O)[C@H]1O` [QUEBRACHITOL], for which the values for the residual activity in series [1] and in series [2] were 106.9% and 101.4%, respectively.
With `O=c1c(O)c(-c2ccc(O)c(O)c2)oc2cc(O)cc(O)c12` [QUERCETIN], the residual activity in series [1] came to 122.6%; in series [2] it was 47.09%.
In the same order, the values of `C[C@@H]1O[C@@H](Oc2c(-c3ccc(O)c(O)c3)oc3cc(O)cc(O)c3c2=O)[C@H](O)[C@H](O)[C@H]1O` [QUERCITRIN] are 114.6% and 107.2%.
On to `CCN(CC)CCCC(C)Nc1c2ccc(Cl)cc2nc2ccc(OC)cc12.Cl.Cl.O.O` (stereo not drawn) [QUINACRINE HYDROCHLORIDE], for which the residual activity in series [1] is listed as 95.69%; in series [2], 83.49%.
In the same order, the values of `O=C1c2ccc(O)c(O)c2C(=O)c2c(O)ccc(O)c21` [QUINALIZARIN] are 75.87% and 57.07%.
In the same order, the values of `CCOC(=O)[C@H](CCc1ccccc1)N[C@@H](C)C(=O)N1Cc2ccccc2C[C@H]1C(=O)O.Cl` [QUINAPRIL HYDROCHLORIDE] are 98.34% and 109.5%.
